The experiment concerns the target T1, GST-Xa-hAAK1 (Homo sapiens, UniProt Q2M2I8).
T1 construct: GST (N); Factor Xa cleavage site (Xa) (internal); made in house
The experiment can be described thus: AAK1 Kinase Assay. It is filed as biochemical. Conditions: bacterially expressed GST-Xa-hAAK1 3.5 nM; ATP 22 μM; fluoresceinated peptide 1.5 μM; 3 hours at room temperature; Caliper LabChip 3000. The gist of the method: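 Bacterially expressed GST-Xa-hAAK1 (3.5 nM) phosphorylated 1.5 μM 5-FAM peptide with 22 μM ATP in Tris pH 7.4, MgCl2, DTT, 1.6% DMSO, 3 h at room temperature. EDTA-stopped; product separated electrophoretically on Caliper LabChip. IC50 from eleven concentrations by non-linear regression.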

Here are results for eight compounds from patent publication US10246469B2, “Biaryl kinase inhibitors” (BRISTOL-MYERS SQUIBB COMPANY, priority 2015, dated 2019).

T1 sequence (Q2M2I8 whole entry): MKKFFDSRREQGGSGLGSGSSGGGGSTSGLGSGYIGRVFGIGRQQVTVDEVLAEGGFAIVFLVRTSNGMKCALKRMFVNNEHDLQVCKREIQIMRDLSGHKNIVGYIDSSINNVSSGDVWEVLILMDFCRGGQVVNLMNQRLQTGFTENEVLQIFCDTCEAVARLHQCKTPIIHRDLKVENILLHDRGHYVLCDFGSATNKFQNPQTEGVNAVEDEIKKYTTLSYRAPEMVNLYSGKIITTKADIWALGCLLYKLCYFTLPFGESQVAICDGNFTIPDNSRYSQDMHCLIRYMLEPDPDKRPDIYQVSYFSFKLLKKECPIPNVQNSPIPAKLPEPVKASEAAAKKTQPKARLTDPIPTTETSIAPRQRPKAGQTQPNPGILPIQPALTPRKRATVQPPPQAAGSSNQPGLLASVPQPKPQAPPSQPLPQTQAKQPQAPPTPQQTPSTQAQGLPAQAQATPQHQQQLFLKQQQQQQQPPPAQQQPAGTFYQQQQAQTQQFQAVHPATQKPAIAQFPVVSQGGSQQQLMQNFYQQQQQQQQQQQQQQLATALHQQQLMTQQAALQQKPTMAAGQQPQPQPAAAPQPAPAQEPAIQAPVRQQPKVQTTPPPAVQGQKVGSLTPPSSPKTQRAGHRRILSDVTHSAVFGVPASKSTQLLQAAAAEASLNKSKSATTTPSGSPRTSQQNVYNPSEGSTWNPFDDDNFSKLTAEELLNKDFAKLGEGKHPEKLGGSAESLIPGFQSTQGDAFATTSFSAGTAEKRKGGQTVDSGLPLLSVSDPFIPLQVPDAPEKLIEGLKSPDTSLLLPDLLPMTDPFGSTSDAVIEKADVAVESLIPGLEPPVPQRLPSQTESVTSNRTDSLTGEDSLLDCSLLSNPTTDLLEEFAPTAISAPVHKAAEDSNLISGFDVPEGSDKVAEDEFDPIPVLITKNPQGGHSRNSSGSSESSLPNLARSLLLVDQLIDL

The IC50 is the midpoint of a concentration-inhibition curve. On to `Cc1cn2nccc(-c3ccc(OC[C@@](C)(N)CC(C)C)c(C(F)(F)F)c3)c2n1` [Example 498, (S)-2,4-dimethyl-1-(4-(2-methylimidazo[1,2-b]pyridazin-8-yl)-2-(trifluoromethyl)phenoxy)pentan-2-amine], for which the IC50 came to 0.5 nM.

As for `CC(C)C[C@](C)(N)COc1ccc(-c2ccnn3cc(C4CC4)nc23)cc1C#N` [Example 499, (S)-2-((2-amino-2,4-dimethylpentyl)oxy)-5-(2-cyclopropylimidazo[1,2-b]pyridazin-8-yl)benzonitrile], the IC50 worked out at 1.2 nM.

For the compound `Cc1cc(-c2ccnn3cc(C(F)(F)F)nc23)ccc1OC[C@@](C)(N)CC(C)C` [Example 500, (S)-2,4-dimethyl-1-(2-methyl-4-(2-(trifluoromethyl)imidazo[1,2-b]pyridazin-8-yl)phenoxy)pentan-2-amine], the IC50 amounted to 30 nM.

Regarding `CC(C)C[C@](C)(N)COc1ccc(-c2ccnn3cc(C(F)(F)F)nc23)cc1` [Example 501, (S)-2,4-dimethyl-1-(4-(2-(trifluoromethyl)imidazo[1,2-b]pyridazin-8-yl)phenoxy)pentan-2-amine], the IC50 came out at 69 nM.

Take `Cc1cc(-c2cnc3cccnn23)ccc1OC[C@@](C)(N)CC(C)C` [Example 502, (S)-1-(4-(imidazo[1,2-b]pyridazin-3-yl)-2-methylphenoxy)-2,4-dimethylpentan-2-amine]: the IC50 came to 144 nM.

For `CC(C)C[C@](C)(N)COc1ccc(-c2cnc3cccnn23)cc1Cl` [Example 503, (S)-1-(2-chloro-4-(imidazo [1,2-b]pyridazin-3-yl)phenoxy)-2,4-dimethylpentan-2-amine], the IC50 was found to be 62 nM.

For `Cc1cc(-c2ccnn3cc(C(F)(F)F)nc23)cnc1OC[C@](C)(N)CC(C)C` [Example 504, (R)-2,4-dimethyl-1-((3-methyl-5-(2-(trifluoromethyl)imidazo[1,2-b]pyridazin-8-yl)pyridin-2-yl)oxy)pentan-2-amine], the IC50 is 606 nM.

In the case of `CC(C)C[C@](C)(N)COc1ccc(-c2cc(=O)[nH]cn2)cc1Cl` [Example 509, (S)-6-(4-((2-amino-2,4-dimethylpentyl)oxy)-3-chlorophenyl)pyrimidin-4(3H)-one], the IC50 is 6.1 nM.
